Some test systems named below: M19-MEL melanoma; LXFL 529 NSCLC; XF 498 CNS; DLD-1 colon; RXF-631 renal; SNB-78 CNS.
Experiment in all cases: DTP human tumour cell line panel, 48 h

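How tested: cells in 96-well plates exposed to compound for 48 hours at five concentrations. TGI: concentration producing complete growth inhibition.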

Consider `OC1CCSc2ccccc21` (configuration not stated), for which the TGI in the test on M19-MEL melanoma, in the test with LXFL 529 NSCLC, in the test on XF 498 CNS and in the test on DLD-1 colon was over 100 µM throughout.
Take `C=C(CN(C)C)C(=O)c1ccccc1Cl`: the TGI (as a rule, the concentration at which net growth stops) is 33.4 µM with M19-MEL melanoma; 37.8 µM with RXF-631 renal; 83.1 µM with SNB-78 CNS; 26 µM in the test with LXFL 529 NSCLC; 36.3 µM with DLD-1 colon.
For `CC(C)C(=O)CC(c1ccc(Br)cc1)N1N=C(C(C)C)CC1c1ccc(Br)cc1` (configuration not stated), the TGI was over 100 µM with M19-MEL melanoma, over 100 µM with LXFL 529 NSCLC and 59 µM in the test on XF 498 CNS.

(Values after PubChem BioAssay (NCI).)
